Laboratory results taken from patent US20220313658A1, “YAP Inhibition for Wound Healing” (The Board of Trustees of the Leland Stanford Junior …, priority 2019, published 2022).

Key:
dorsal excisional wounds [1] = experiment: Example 2: excisional wound model, hair regrowth after single Verteporfin injection; assay type: in vivo, mouse
Source text: Adult mice were used for cutaneous wound healing experiments in accordance with well-established protocols. Briefly, mice were anesthetized (2% isofluorane), their dorsal hair was removed with depilatory cream, and the dorsal skin was prepped with alcohol wipes. Next, two 6 mm full-thickness circular wounds were placed through the panniculus carnosus on the dorsum of each animal at the same level, roughly 6 mm below the ears and 4 mm lateral to the midline. The wounds were then stented open by 12 mm diameter silicone rings secured around the wound perimeter with glue and 8 simple interrupted Ethilon 6-0 sutures (Ethicon). For mice receiving mechanotransduction inhibitor, 30 μL of Verteporfin (1 mg/mL) was injected locally into the wound base; PBS was injected into wounds for vehicle controls. Post-operative analgesia was accomplished with buprenorphine 0.05 mg/kg every four hours for three doses, and then as indicated. Dressings were changed every other day under anesthesia. […]

ENFs = experiment: Bulk RNA-seq of ENFs cultured on TCPS in the presence of Verteporfin; assay type: cell-based, mouse
Procedure: Total RNA was harvested by lysing cells in Trizol reagent (Invitrogen), RNA extraction and library preparation was performed by the Stanford Functional Genomics facility using standard Qiagen kits and protocols. Directional RNA-Sal libraries were analyzed with an Agilent Bioanalyzer to ensure successful library creation, and then sequenced with the Illumina HiSeq 4000 System (2×75 bp, 150 cycles), Paired-end reads were mapped to the mouse genome reference sequence mm10 using the STAR aligner. […] It is common practice to normalize read counts by the total number of reads and the length of each transcript, yielding reads per kilobase mapped (RPKM) values. However, such analysis may be skewed towards a few highly expressed genes that dominate the total lane count. Thus, instead, counts were normalized by a size factor, calculated by taking the median of the ratios of observed counts to those of a pseudo-reference sample (whose counts are the geometric means of each gene across all samples). For hypothesis testing of differential gene transcription, the read counts were modeled according to a negative binomial distribution, with the variance considered as the sum of the shot noise term and a locally regressed non-parametric smooth function of the mean. […] Raw RNA-seq data can be accessed at the following Github repository: https://github.com/[…]. […] Ranked whole genome enrichment analyses in FIGS. 6 and 7 were performed using GSEA software developed by the Broad Institute with nominal p value and false discovery rate (FDR) cutoffs of 0.01 and 0.25, respectively. All g.Profiler and GSEA results are available in the following Github repository: https://github.com/[…]. In order to ascertain whether in vitro En-1 activation involved a shift toward a fibrotic transcriptomic profile, bulk ENFs were isolated from En-1^Cre;R26^mTmG mice and grew these cells on TCPS for 2 days (at which point ENFs remain single cells), 7 days (when ENFs form colonies), or 14 days (when ENFs activate En-1) (experimental schematic in FIG. 3, A). Cultured cells were then subjected to bulk RNA-seq analysis. Next, to assess if postnatal En-1 activation was dependent on mechanotransduction signaling, ENFs cultured on TCPS were grown in the presence of Verteporfin. After 14 days in culture, treated cells were subjected to RNA-seq. […] GO term analysis in g.

dorsal excisional wounds [2] = experiment: Quantitative analysis of collagen/ECM ultrastructure (Picrosirius Red, machine learning) of healed wounds; assay type: in vivo, mouse
Procedure: For analysis of Picrosirius Red-stained histologic sections, scars and surrounding normal skin from three biologic replicates were randomly imaged at 5 to 10 separate locations each, for a minimum of 20 images per experimental condition. Next, color deconvolution of Picrosirius Red images was performed in ImageJ using the algorithm previously described by Ruifrok et al., (A. C. Ruifrok, D. A. Johnston, Quantification of histochemical staining by color deconvolution. Anal Quant Cytol Histol 23, 291-299 (2001)) wherein each pure stain is characterized by absorbances within three RGB channels (Color 1=[1 0 0], Color 2=[0 1 0], Color 3=[1 1 1]). Ortho-normal transformation of the histology images produced individual images corresponding to each color's individual contribution to the image. Applied to birefringent Picrosirius Red images (green to red color under polarized light depending on packing of fiber bundles), this technique produced deconvoluted red and green images corresponding to mature and immature connective tissue fibers, which were then analyzed independently. Analysis was thus performed purely using extracellular matrix fibers, with no cellular elements included. Noise reduction of deconvoluted fibers was achieved using an adaptive Wiener filter in Matlab 2019a (wiener2 function), which tailors itself to the local image variance within a pre-specified neighborhood (3-by-3 pixels in the current application). The filter preferentially smooths regions with low variance, thereby preserving sharp edges of fibers. Smooth images were then binarized using the im2bw command and processed through erosion and dilation filters with both linear and diamond-shaped structuring elements to select for fiber-shaped objects. Finally, the fiber network was “skeletonized” using the bwmorph command and various parameters of the digitized map (fiber length, width, persistence, alignment, etc.) were measured using the regionprops command. Dimensionality reduction of quantified fiber network properties by […] stochastic neighbor embedding (t-SNE) was achieved using the default tsne (distance metric specified as Euclidian distance) command in Matlab. A Matlab script containing the fiber quantification pipeline is available at the following Github repository: https://github.com/shamikmascharak/Mascharak-et-al-ENF
To overcome these challenges, a novel machine learning algorithm recently reported to quantitatively assess connective tissue and fibrosis based on standard histology stains was employed. (S. Mascharak et al., Automated machine learning analysis of connective tissue networks in acute and chronic skin fibroses (manuscript submitted). (2019)) Briefly, images of Picrosirius Red-stained tissue were color-deconvoluted to isolate ECM fibers from cell bodies and nuclei. Fiber components were image-processed to reduce noise, then binarized to produce a digital map of thousands of fibers and branchpoints. A panel of individual (e.g., length, width) and group (e.g., packing, alignment) fiber properties was then measured to quantitatively profile ECM features.
Verteporfin- and control-treated specimens were stained with Picrosirius Red and subjected to this analysis.

[3] = single local injection immediately following wounding
[4] = ENFs on TCPS, 14 days with Verteporfin

For verteporfin, the “Regrowth of dermal appendages” value (dorsal excisional wounds [1]; POD 90 (FIG. 13, C)) was “regrowth of hair follicles and other dermal appendages”, the Hair regrowth (dorsal excisional wounds [1]; [3]) was “dramatic increase in hair regrowth” and the “Regeneration of new hair follicles (gross, histology, immunohistochemistry)” value (dorsal excisional wounds [1]; [3]) was “Regeneration of new hair follicles in Verteporfin-treated wounds was observed”. For the same substance, the Wound closure (dorsal excisional wounds [1]; [3]) was “did not delay wound closure”, the “Expression of ECM / pro-fibrotic matrix genes” value (ENFs; [4]) was “reduced expression of various ECM genes” and the “GO term enrichment (g.Profiler)” value (ENFs; [4]) was “decreased enrichment of ECM-related terms and relatively higher muscle development-related terms”. The “Transcriptomic shift over time in culture (RNA-seq)” value (ENFs; ENFs on TCPS, 14 days with Verteporfin, vs untreated cells) was “attenuated the transcriptomic shift observed in untreated cells”, the “Expression of ECM / pro-fibrotic matrix genes” value (ENFs; ENFs on TCPS, 14 days with Verteporfin, listed as Vert) was “mitigated” and the “Principal component analysis of RNA-seq data” value (ENFs; ENFs treated with Verteporfin for 14 days) was “more closely resembled untreated cells that had only been in culture for 2 days”. For the same substance, the “Clustering of connective tissue parameters, Verteporfin-treated wounds vs unwounded skin” value (“Clustering … vs unwounded skin” for short) (dorsal excisional wounds [2]; 30 days) was “increasing overlap”, the “Clustering … vs unwounded skin” value (dorsal excisional wounds [2]; 90 days) was “complete overlap” and the “ECM fiber metrics (fiber length, width, branching, etc.)” value (dorsal excisional wounds [2]; POD 14) was “comparable to unwounded skin”. The “Clustering … vs unwounded skin” value (dorsal excisional wounds [2]; after 14 days) was “largely overlapping clusters” and the ECM features (dorsal excisional wounds [2]; four treatments (POD 0, 4, 8 and 12)) was “diverged from those of unwounded skin”.
